Assay results reported in patent US8853172B2, “Anti-plant-virus agent” (National University Corporation Hokkaido University, priority 2009, dated 2014).

Assays:
Assay type in all cases: in vivo
Turnip mosaic virus [1] = experiment: Experiment III: therapeutic test, spraying after inoculation of Arabidopsis thaliana with Turnip mosaic virus (inoculation solution C); details: Arabidopsis thaliana (Columbia), ten columns inoculated, 20 mM sprayed on days 1, 4, 7 and 10 after inoculation, observed on the 16th day
Procedure: A nonionic surfactant (polyoxyethylene sorbitan monolaurate) and a spreading agent (Approach BI: manufactured by Kao Corporation) were dissolved in N,N-dimethylformamide. This solution was added to water to obtain an aqueous solution comprising 0.05% of a nonionic surfactant, 0.1% of a spreading agent, and 1% of N,N-dimethylformamide.
(§1) Two expanded leaves per one column of Arabidopsis thaliana (Columbia) were inoculated with the virus via the aforementioned virus inoculation solution C by the carborundum method.
On the 1st day, the 4th day, the 7th day and the 10th day after the date of the virus inoculation, the aforementioned aqueous solution was sprayed thereon.
On the 16th day after the date of the virus inoculation, the presence or absence of disease symptoms such as yellow mosaic of new leaves, leaf curling, plant stunting was observed.
(§2) Ascorbic acid 6-palmitate, a nonionic surfactant (polyoxyethylene sorbitan monolaurate) and a spreading agent (Approach BI: manufactured by Kao Corporation) were dissolved in N,N-dimethylformamide. This solution was added to water to obtain an aqueous solution of the anti-plant virus agent comprising 20 mM ascorbic acid 6-palmitate, 0.05% of a nonionic surfactant, 0.1% of a spreading agent, and 1% of N,N-dimethylformamide.
Except that the aqueous solution of the anti-plant virus agent was sprayed onto Arabidopsis thaliana instead of the aforementioned aqueous solution, in the same manner as Comparative Example 6, Turnip mosaic virus was inoculated onto Arabidopsis thaliana, and then the onset of the symptoms was examined.

Turnip mosaic virus [2] = experiment: Experiment II: preventive test, spraying before inoculation of Arabidopsis thaliana with Turnip mosaic virus (inoculation solution C); details: for columns that showed symptoms / columns that were healthy: Arabidopsis thaliana (Columbia), ten columns inoculated, 20 mM sprayed on the 3rd and 1st day before inoculation, observed on the 16th day
Procedure: The frozen tobacco leaves infected with Turnip mosaic virus were triturated in 0.1M phosphate-buffer solution at a 10-fold amount (containing 10 mM DIECA). Then, this was diluted 50 times with the same buffer solution. This was defined as virus inoculation solution C.
as §1
On the 3rd day and the 1st day prior to the date of the virus inoculation, an aqueous solution of 0.1% a spreading agent (Approach BI: manufactured by Kao Corporation) was sprayed thereon.
On the 16th day after the date of the virus inoculation, the presence or absence of disease symptoms such as yellow mosaic of new leaves, leaf curling, and plant stunting was observed.
(§3) Each was dissolved in water so as to be 20 mM ascorbic acid and 0.1% of a spreading agent (Approach BI: manufactured by Kao Corporation), thereby obtaining an aqueous solution of ascorbic acid. Except that the aqueous solution of ascorbic acid was sprayed onto Arabidopsis thaliana instead of the aqueous solution of the spreading agent, in the same manner as Comparative Example 3, Turnip mosaic virus was inoculated onto Arabidopsis thaliana, and then the onset of symptoms was examined.

Turnip mosaic virus [3] = experiment: Experiment I: spraying before and after inoculation of Arabidopsis thaliana with Turnip mosaic virus (inoculation solution A), onset of symptoms; details: for columns that showed symptoms / columns that were healthy: Arabidopsis thaliana (Columbia), seven columns inoculated, 20 mM sprayed on days 3 and 1 before and 1, 3, 5, 8, 10 after inoculation, observed on the 14th day
Procedure: (§4) Each of the frozen tobacco leaves infected with Turnip mosaic virus and Cucumber mosaic virus (Y strain) was triturated in 0.1M phosphate-buffer solution at a 10-fold amount (containing 10 mM diethyldithiocarbamic acid (DIECA)). These were defined as virus inoculation solutions A and B. These virus inoculation solutions A and B are solutions causing a 100% incidence.
(§5) Three expanded leaves per one column of Arabidopsis thaliana (Columbia) were inoculated with each virus via the aforementioned virus inoculation solutions A and B by the carborundum method.
(§6) On the 3rd day and the 1st day prior to the date of the virus inoculation, and on the 1st day, the 3rd day, the 5th day, the 8th day and the 10th days after the date of the virus inoculation, an aqueous solution of 0.1% of a spreading agent (Approach BI: manufactured by Kao Corporation) was sprayed thereon.
(§7) On the 14th day after the virus inoculation, the presence or absence of disease symptoms such as yellow mosaic of new leaves, leaf curling, and plant stunting was observed. […] It can be seen that the above virus inoculation solutions A and B are strong solutions in view of the fact that the inoculation with the solutions reliably causes the onset of symptoms.
as §3, with “Example 1,” for “Example 3,”, “virus and Cucumber mosaic virus (Y strain) were” for “virus was”
as §2, with “of N,N-dimethylformamide. Except that the aqueous solution of the anti-plant virus agent was sprayed thereon instead of the aqueous solution of ascorbic acid, in the same manner as Comparative Example 2, Turnip mosaic virus and Cucumber mosaic virus (Y strain) were inoculated onto Arabidopsis thaliana, and then the onset of symptoms was examined.” for “of N,N-dimethylformamide.”
Each was added to water so as to be 20 mM ascorbic acid 2-phosphate ester 3-sodium and 0.1% of a spreading agent (Approach BI: manufactured by Kao Corporation), thereby obtaining an aqueous solution of the anti-plant virus agent. Except that the aqueous solution of the anti-plant virus agent was sprayed thereon instead of the aqueous solution of ascorbic acid, in the same manner as Comparative Example 2, Turnip mosaic virus was inoculated onto Arabidopsis thaliana, and then the onset of symptoms was examined.

[4] = system: Cucumber mosaic virus (Y strain); experiment: Experiment I: spraying before and after inoculation of Arabidopsis thaliana with Cucumber mosaic virus (Y strain) (inoculation solution B), onset of symptoms; details: Arabidopsis thaliana (Columbia), seven columns inoculated, 20 mM sprayed on days 3 and 1 before and 1, 3, 5, 8, 10 after inoculation, observed on the 14th day
Procedure: as §4, §5, §6, §7
as §3, with “Example 1,” for “Example 3,”, “virus and Cucumber mosaic virus (Y strain) were” for “virus was”
Ascorbic acid 6-palmitate, a nonionic surfactant (polyoxyethylene sorbitan monolaurate) and a spreading agent (Approach BI: manufactured by Kao Corporation) were dissolved in N,N-dimethylformamide. […]

[5] = system: Tomato aspermy virus (V strain); experiment: Experiment IV: spraying of tomato (cultivar Beiju) inoculated with Tomato aspermy virus (V strain); details: four columns inoculated, 2 mM sprayed every day for two weeks from inoculation, observed on the 30th day
Procedure: The frozen tobacco (Nicotiana benthamiana) infected with Tomato aspermy virus (V strain) was triturated in 0.1M phosphate-buffer solution at a 10-fold amount (containing 10 mM DIECA), and was filtered through a double gauze and the filtrate was defined as virus inoculation solution D. Onto fully expanded leaves of the seedling stage of tomato (cultivar: Beiju) after a period of two weeks from seeding, the virus inoculation solution D was inoculated by physical application via the carborundum method.
After the virus inoculation, as a result of examination of disease symptoms over time, mosaic or leaf curling could be recognized after the 5th day, and lethal necrosis symptoms were shown after the period of two weeks, and all of the five columns inoculated with Tomato aspermy virus (V strain) withered.
200 mM of ascorbic acid 6-palmitate was dissolved in N,N-dimethylformamide. This solution was diluted 100 times with distilled water to obtain an aqueous solution of the anti-plant virus agent comprising 2 mM ascorbic acid 6-palmitate and 1% of N,N-dimethylformamide. In the same manner as Comparative Example 7, the tomato was inoculated with tomato aspermy virus (V strain). During the two weeks from the date of virus inoculation, the aforementioned aqueous solution was sprayed thereon every day, and disease symptoms were examined over time. […]

| Compound | columns that showed symptoms (Turnip mosaic virus [1]) | columns that were healthy (Turnip mosaic virus [1]) | columns that showed symptoms (Turnip mosaic virus [2]) | columns that were healthy (Turnip mosaic virus [2]) | columns that showed symptoms (Turnip mosaic virus [3]) | further results |
| --- | --- | --- | --- | --- | --- | --- |
| CCCCCCCCCCCCCCCCCC(=O)OC[C@H](O)[C@H]1OC(=O)C(O)=C1O [ascorbic acid 6-stearate] | one | nine |  |  |  |  |
| CCCCCCCCCCCCCCCC(=O)OC[C@H](O)[C@H]1OC(=O)C(OC(=O)CCCCCCCCCCCCCCC)=C1O [ascorbic acid 2,6-dipalmitate] | one | nine |  |  |  |  |
| O=C1O[C@H]([C@@H](O)CO)C([O-])=C1O.[Na+] [sodium ascorbate] |  |  | three | seven |  |  |
| O=C1O[C@H]([C@@H](O)CO)C(O)=C1O [ascorbic acid, reference compound] |  |  | two | eight | seven | anti-plant viral activity / preventive effect (conclusion in words) (Turnip mosaic virus [2]; Experiment II, 20 mM sprayed before inoculation): do not have any anti-plant viral activity; anti-plant viral activity (conclusion in words) (Turnip mosaic virus [3]; Experiment I, 20 mM spray): does not have any anti-plant viral activity; columns that showed symptoms [4]: seven |
| O=C1O[C@H]([C@@H](O)CO)C(O)=C1O[C@H]1O[C@H](CO)[C@@H](O)[C@H](O)[C@H]1O [ascorbic acid 2-glucoside] |  |  | one | nine |  |  |
| O=C1O[C@H]([C@@H](O)CO)C([O-])=C1OP(=O)([O-])[O-].[Na+].[Na+].[Na+] [ascorbic acid 2-phosphate ester 3-sodium] |  |  |  | ten | five | columns that were healthy (Turnip mosaic virus [3]): two |
| CCCCCCCCCCCCCCCC(=O)OC[C@H](O)[C@H]1OC(=O)C(O)=C1O [ascorbic acid 6-palmitate] | one | nine |  |  | five | columns that were healthy (Turnip mosaic virus [3]): two; columns that showed symptoms [4]: five; columns that were healthy [4]: two; columns that were healthy [5]: two; columns that withered [5]: two |
| CCCCCCCCC(CCCCCC)C(=O)OCC(OC(=O)C(CCCCCC)CCCCCCCC)C1OC(=O)C(OC(=O)C(CCCCCC)CCCCCCCC)=C1OC(=O)C(CCCCCC)CCCCCCCC (stereo not drawn) [ascorbyl 2,3,5,6-tetrahexyldecanoate] | one | nine |  |  |  |  |
